Laboratory results taken from publication PMC7071059, “Targeting Receptor Tyrosine Kinase VEGFR-2 in Hepatocellular Cancer: Rational Design, Synthesis and Biological Evaluation of 1,2-Disubstituted Benzimidazoles” (Molecules, 2020).

How the values were obtained:
Assay in all cases: NCI 60 one dose (10 μM) anticancer assay
Type in all cases: cell-based
SNB-75 = details: Homo sapiens, 10 µM one dose, CNS Cancer, read-out: Growth Inhibition % SNB-75
Procedure: (§1) Some of the synthesized compounds were selected by the NCI, Bethesda, MD, USA for evaluation of their anticancer activity. An in vitro one dose (10 μM) anticancer assay was conducted on a full NCI 60-cell line panel derived from 9 different cancer types. Table 2 presents the percent of growth inhibition of some cell lines. […] K-562 and MOLT-4 from leukemia, NCI-H522 from non-small cell lung cancer, HCT-116 from colon cancer, SK-MEL-5 and UACC-62 from melanoma, UO-31 from renal cancer, PC-3 from prostate cancer and HS 578T and T-47D from breast cancer are the most sensitive cell lines to the tested compounds. No growth inhibition was observed from the selected compounds against COLO205, HCC-2998, MALME-3M, SK-MEL-28, DU-145 and BT-549 cell lines. […] Against UO-31 from renal cancer and PC-3 from prostate cancer, it inhibited the growth of 44% and 58% of the cancer cells, respectively.

NCI/ADR-RES = details: Homo sapiens, 10 µM one dose, Ovarian Cancer, read-out: Growth Inhibition % NCI/ADR-RES
Procedure: as §1

M14 = details: Homo sapiens, 10 µM one dose, Melanoma, read-out: Growth Inhibition % M14
Procedure: as §1

MCF7 = details: Homo sapiens, 10 µM one dose, Breast Cancer, read-out: Growth Inhibition % MCF7
Procedure: as §1

BT-549 = details: Homo sapiens, 10 µM one dose, Breast Cancer, read-out: Growth Inhibition % BT-549
Procedure: as §1

SNB-19 = details: Homo sapiens, 10 µM one dose, CNS Cancer, read-out: Growth Inhibition % SNB-19
Procedure: as §1

HCT-116 = details: Homo sapiens, 10 µM one dose, Colon Cancer, read-out: Growth Inhibition % HCT-116
Procedure: as §1

KM12 = details: Homo sapiens, 10 µM one dose, Colon Cancer, read-out: Growth Inhibition % KM12
Procedure: as §1

EKVX = details: Homo sapiens, 10 µM one dose, Non-small cell lung Cancer, read-out: Growth Inhibition % EKVX
Procedure: as §1

LOX IMVI = details: Homo sapiens, 10 µM one dose, Melanoma, read-out: Growth Inhibition % LOX IMVI
Procedure: as §1

HCT-15 = details: Homo sapiens, 10 µM one dose, Colon Cancer, read-out: Growth Inhibition % HCT-15
Procedure: as §1

SF-268 = details: Homo sapiens, 10 µM one dose, CNS Cancer, read-out: Growth Inhibition % SF-268
Procedure: as §1

MOLT-4 = details: Homo sapiens, 10 µM one dose, Leukemia, read-out: Growth Inhibition % MOLT-4
Procedure: as §1

HS 578T = details: Homo sapiens, 10 µM one dose, Breast Cancer, read-out: Growth Inhibition % HS 578T
Procedure: as §1

NCI-H23 = details: Homo sapiens, 10 µM one dose, Non-small cell lung Cancer, read-out: Growth Inhibition % NCI-H23
Procedure: as §1

U251 = details: Homo sapiens, U-251; 10 µM one dose; CNS Cancer; read-out: Growth Inhibition % U251
Procedure: as §1

CCRF-CEM = details: Homo sapiens, 10 µM one dose, Leukemia, read-out: Growth Inhibition % CCRF-CEM
Procedure: as §1

MDA-MB-231/ATTC = details: Homo sapiens, 10 µM one dose, Breast Cancer, read-out: Growth Inhibition % MDA-MB-231/ATTC
Procedure: as §1

SW-620 = details: Homo sapiens, 10 µM one dose, Colon Cancer, read-out: Growth Inhibition % SW-620
Procedure: as §1

NCI-H522 = details: Homo sapiens, 10 µM one dose, Non-small cell lung Cancer, read-out: Growth Inhibition % NCI-H522
Procedure: as §1

TK-10 = details: Homo sapiens, 10 µM one dose, Renal Cancer, read-out: Growth Inhibition % TK-10
Procedure: as §1

786-0 = details: Homo sapiens, 10 µM one dose, Renal Cancer, read-out: Growth Inhibition % 786-0
Procedure: as §1

NCI-H460 = details: Homo sapiens, 10 µM one dose, Non-small cell lung Cancer, read-out: Growth Inhibition % NCI-H460
Procedure: as §1

UACC-62 = details: Homo sapiens, 10 µM one dose, Melanoma, read-out: Growth Inhibition % UACC-62
Procedure: as §1

MDA-MB-468 = details: Homo sapiens, 10 µM one dose, Breast Cancer, read-out: Growth Inhibition % MDA-MB-468
Procedure: as §1

HT29 = details: Homo sapiens, HT-29; 10 µM one dose; Colon Cancer; read-out: Growth Inhibition % HT29
Procedure: as §1

OVCAR-5 = details: Homo sapiens, 10 µM one dose, Ovarian Cancer, read-out: Growth Inhibition % OVCAR-5
Procedure: as §1

A498 = details: Homo sapiens, 10 µM one dose, Renal Cancer, read-out: Growth Inhibition % A498
Procedure: as §1

CAK1-1 = details: 10 µM one dose; Renal Cancer; read-out: Growth Inhibition % CAK1-1
Procedure: as §1

SR = details: Homo sapiens, 10 µM one dose, Leukemia, read-out: Growth Inhibition % SR
Procedure: as §1

Row | SMILES | inhibition at 10 µM (SNB-75) [%] | inhibition at 10 µM (NCI/ADR-RES) [%] | inhibition at 10 µM (M14) [%] | inhibition at 10 µM (MCF7) [%] | inhibition at 10 µM (BT-549) [%] | inhibition at 10 µM (SNB-19) [%] | inhibition at 10 µM (HCT-116) [%] | inhibition at 10 µM (KM12) [%] | inhibition at 10 µM (EKVX) [%] | inhibition at 10 µM (LOX IMVI) [%] | inhibition at 10 µM (HCT-15) [%] | inhibition at 10 µM (SF-268) [%] | inhibition at 10 µM (MOLT-4) [%] | inhibition at 10 µM (HS 578T) [%] | inhibition at 10 µM (NCI-H23) [%] | inhibition at 10 µM (U251) [%] | inhibition at 10 µM (CCRF-CEM) [%] | inhibition at 10 µM (MDA-MB-231/ATTC) [%] | inhibition at 10 µM (SW-620) [%] | inhibition at 10 µM (NCI-H522) [%] | also measured
1 | C/C(=N\NC(=O)Cn1c(C(C)C)nc2ccccc21)c1ccccc1 [Compound 14a, (E)-2-(2-Isopropyl-1H-benzo[d]imidazol-1-yl)-N′-(1-phenylethylidene)acetohydrazide] | 18 | < 10 | < 10 | < 10 | < 10 | < 10 | < 10 | < 10 | < 10 | < 10 | < 10 | < 10 | < 10 | 24 | < 10 | < 10 | 16 | < 10 | 18 | < 10 | inhibition at 10 µM (TK-10): < 10%; inhibition at 10 µM (786-0): < 10%; inhibition at 10 µM (NCI-H460): < 10%; inhibition at 10 µM (UACC-62): 13%; inhibition at 10 µM (MDA-MB-468): 29%; inhibition at 10 µM (HT29): < 10%; inhibition at 10 µM (OVCAR-5): 21%; inhibition at 10 µM (A498): 49%; inhibition at 10 µM (CAK1-1): 12%
2 | CC(C)c1nc2ccccc2n1CC(=O)N/N=C/c1cccc(OCc2ccccc2)c1 [Compound 17a, (E)-N′-(3-(Benzyloxy)benzylidene)-2-(2-isopropyl-1H-benzo[d]imidazol-1-yl)acetohydrazide] | 15 | < 10 | 16 | < 10 | 28 | 22 | 66 | < 10 | 21 | < 10 | < 10 | < 10 | 50 | 20 | 39 | < 10 | 41 | 25 | < 10 | 33 | inhibition at 10 µM (SR): 64%; inhibition at 10 µM (TK-10): < 10%; inhibition at 10 µM (786-0): 24%; inhibition at 10 µM (NCI-H460): < 10%; inhibition at 10 µM (UACC-62): 41%; inhibition at 10 µM (MDA-MB-468): 47%; inhibition at 10 µM (HT29): < 10%; inhibition at 10 µM (OVCAR-5): < 10%; inhibition at 10 µM (A498): 17%; inhibition at 10 µM (CAK1-1): < 10%
3 | Cc1ccc(-c2nc3ccccc3n2CC(=O)N/N=C/c2cccc(OCc3ccccc3)c2)o1 [Compound 17b, (E)-N′-(3-(Benzyloxy)benzylidene)-2-(2-(5-methylfuran-2-yl)-1H-benzo[d]imidazol-1-yl)acetohydrazide] | 39 | 29 | 24 | 48 | < 10 | 21 | 32 | 23 | 43 | 23 | 35 | 37 | 58 | 25 | 14 | 36 | 28 | 25 | 13 | 28 | inhibition at 10 µM (SR): 25%; inhibition at 10 µM (TK-10): 10%; inhibition at 10 µM (786-0): 26%; inhibition at 10 µM (NCI-H460): 27%; inhibition at 10 µM (UACC-62): 29%; inhibition at 10 µM (MDA-MB-468): 20%; inhibition at 10 µM (HT29): 29%; inhibition at 10 µM (OVCAR-5): 14%; inhibition at 10 µM (A498): 16%; inhibition at 10 µM (CAK1-1): 33%
